Source: patent US20030199590A1, “Prostaglandin analogues for promotion of hair growth” (priority 2002, published 2003)
Like-named read-outs stand apart in the source and are kept apart here.

Experiments:
eyelash [1] = test: Eyelash change from baseline evaluated by photographs in clinical studies; format: in vivo, patients; settings: for Percent of Patients with Eyelash Change: Table 3; for Percent of Patients with Eyelash Change: Change Reported / Percent of Patients with Eyelash Change: Color Change / Percent of Patients with Eyelash Change: Density Change / Percent of Patients with Eyelash Change: Length Change / Percent of Patients with Eyelash Change: Thickness Change: Table 4; for change in eyelash color, length, density and/or thickness (in words): Travoprost 0.0015% and 0.004%, latanoprost 0.005% compared to travoprost
Excerpt: Eyelash photographs of each eye were taken at determination of patient eligibility […] (baseline) and Months 1.5, 3, 4.5 and 6 in four clinical studies. Additional photographs were taken at Months 9 and 12 in two clinical studies. Eyelash change was classified using the following categories: change in eyelash color, increase in eyelash length, increase in eyelash density and increase in eyelash thickness. Two independent readers evaluated the photographs subjectively for any change from baseline in eyelash characteristics.

eyelash [2] = settings: in some instances, U.S. Pat. No. 6,262,105; cited from earlier work
FP receptors = target: T1, FP receptors (Bos taurus, UniProt P37289); test: FP receptor binding assay ([3H]PGF2α, bovine corpus luteum membranes); settings: for IC50: Table 1, [3H]PGF2α, bovine corpus luteum membranes, free acid form
T1 construct: Washed total particulate bovine corpus luteum membranes; from tissue; host or cells: bovine corpus luteum membranes
T1 sequence (P37289 whole entry): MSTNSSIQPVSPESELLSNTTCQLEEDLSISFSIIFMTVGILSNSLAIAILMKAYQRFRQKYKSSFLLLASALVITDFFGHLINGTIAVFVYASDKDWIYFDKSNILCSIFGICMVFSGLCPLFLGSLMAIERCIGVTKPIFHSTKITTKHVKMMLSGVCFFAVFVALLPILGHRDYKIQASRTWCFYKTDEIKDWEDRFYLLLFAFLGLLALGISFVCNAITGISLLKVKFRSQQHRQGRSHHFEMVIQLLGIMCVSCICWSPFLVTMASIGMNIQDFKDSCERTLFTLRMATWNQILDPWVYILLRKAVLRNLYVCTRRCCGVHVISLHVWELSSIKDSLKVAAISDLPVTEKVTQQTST
Description: Non-specific binding was defined with 1-10 μM unlabeled PGF2α or fluprostenol. The assays were terminated by vacuum filtration (using Whatman GF/B glass fiber filter previously soaked in 0.3% polyethyleneimine) and the data analyzed by a non-linear, iterative, curve-fitting computer program.

[3] = target: T2, FP receptors (Swiss 3T3 cells expressing FP receptors) (Mus musculus, UniProt P43117); test: FP receptor-mediated phosphoinositide turnover assay; format: cell-based; settings: for EC50: [3H]-IPs in Swiss 3T3 cells; for Emax: Swiss-3T3, 1 h, efficacy relative to standard full agonist (100%), read-out: FP functional (%) agonistic activity
T2 construct: endogenous in cells; host or cells: Swiss 3T3 cells
T2 sequence (P43117 whole entry): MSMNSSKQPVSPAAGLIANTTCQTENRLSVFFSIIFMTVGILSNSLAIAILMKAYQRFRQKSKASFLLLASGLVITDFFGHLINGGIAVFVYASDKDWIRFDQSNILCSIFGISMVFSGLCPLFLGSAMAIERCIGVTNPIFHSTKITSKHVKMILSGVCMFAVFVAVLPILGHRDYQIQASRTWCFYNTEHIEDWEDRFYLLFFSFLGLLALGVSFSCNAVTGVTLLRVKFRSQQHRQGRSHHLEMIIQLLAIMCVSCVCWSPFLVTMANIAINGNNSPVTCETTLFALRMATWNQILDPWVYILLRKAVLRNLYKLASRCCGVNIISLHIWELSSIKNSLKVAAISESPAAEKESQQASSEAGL
Description: FP receptor-mediated phosphoinositide turnover assay: [^3H]Inositol phosphates ([^3H]-IPs) produced by agonist-mediated activation of phospholipase C in Swiss 3T3 cells expressing FP receptors were quantified as follows. Confluent 3T3 cells were exposed to 1.0-1.5 μCi [^3H]-myo-inositol (18.3 Ci/mmol) in 0.5 ml DMEM for 24-30 hours at 37° C. Then cells were rinsed once with DMEM/F-12 containing 10 mM LiCl, and the agonist stimulation experiment was performed in 0.5 ml of the same medium to facilitate accumulation of [^3H]-IPs. Cells were exposed to the agonist or solvent for 60 min at 37° C. (triplicate determinations), followed by aspiration of the medium and immediate addition of 1 ml of ice-cold 0.1 M formic acid. The plates were kept cold and then frozen. Samples frozen up to one week were thawed prior to chromatographic separation of radiolabeled components. The cell lysates (0.9 ml) were loaded on columns packed with approximately 1 ml AG 1-X8 anion exchange resin. The elution procedure consisted of a wash with 10 ml of H2O, then 8 ml of 50 mM ammonium formate, and finally 4 ml of 1.2 M ammonium formate with 0.1 M formic acid, which was collected in a scintillation vial. To this eluate was added 15 ml of scintillation fluid and the total [^3H]-IPs determined by scintillation counting on a beta-counter. Data were analyzed by the sigmoidal fit function of the Origin Scientific Graphics software (Microcal Software, Northampton, Mass.) to determine agonist potency (EC50 value) and efficacy, relative to the standard cloprostenol.

[4] = Table 1, read-out: FP functional EC50

CC(C)OC(=O)CCC/C=C\C[C@@H]1[C@@H](CC[C@@H](O)CCc2ccccc2)[C@H](O)C[C@@H]1O [Latanoprost]
Percent of Patients with Eyelash Change (eyelash [1]; 0.005%): 25.8%
Percent of Patients with Eyelash Change: Change Reported (eyelash [1]; 0.005%): 25.8%
Percent of Patients with Eyelash Change: Color Change (eyelash [1]; 0.005%): 16.5%
Percent of Patients with Eyelash Change: Density Change (eyelash [1]; 0.005%): 22.2%
Percent of Patients with Eyelash Change: Length Change (eyelash [1]; 0.005%): 25.8%
Percent of Patients with Eyelash Change: Thickness Change (eyelash [1]; 0.005%): 17.5%
change in eyelash color, length, density and/or thickness (in words) (eyelash [1]): greatly reduced frequency
eyelash growth in glaucoma patients (in words) (eyelash [2]): increased eyelash growth

O=C(O)CCC/C=C\C[C@@H]1[C@@H](CC[C@H](O)COc2cccc(Cl)c2)[C@H](O)C[C@@H]1O [Compound 84]
Ki (FP receptors; Table 2, FP receptor binding): 130 nM
EC50 ([3]; Table 2, read-out: EC50): 210 nM
% response ([3]; Table 2, efficacy relative to standard): 76%

O=C(O)CC/C=C\CC[C@H]1[C@@H](O)CO[C@@H]1/C=C/[C@@H](O)COc1cccc(C(F)(F)F)c1 [Compound 53]
IC50 (FP receptors): 350 nM
Emax ([3]; Table 1): 92%
EC50 [3, 4]: 96 nM

O=C(O)CCC/C=C\C[C@@H]1[C@@H](OC[C@H](O)COc2ccccc2)[C@H](O)C[C@@H]1O [Compound 70]
IC50 (FP receptors): 1070 nM
Emax ([3]; Table 1): 57%
EC50 [3, 4]: 166 nM

O=C(O)CCC/C=C\C[C@H]1[C@@H](O)CO[C@@H]1/C=C/[C@@H](O)COc1ccc(F)cc1 [Compound 37]
IC50 (FP receptors): 1400 nM
Emax ([3]; Table 1): 78%
EC50 [3, 4]: 437 nM

CC(C)OC(=O)CCC/C=C\C[C@@H]1[C@@H](/C=C/[C@@H](O)COc2cccc(C(F)(F)F)c2)[C@H](O)C[C@@H]1O [Travoprost]
Percent of Patients with Eyelash Change (eyelash [1]; 0.0015%): 48.1%
Percent of Patients with Eyelash Change (eyelash [1]; 0.004%): 61.3%
Percent of Patients with Eyelash Change: Change Reported (eyelash [1]; 0.0015%): 48.1%
Percent of Patients with Eyelash Change: Color Change (eyelash [1]; 0.0015%): 37.3%
Percent of Patients with Eyelash Change: Density Change (eyelash [1]; 0.0015%): 44.6%
Percent of Patients with Eyelash Change: Length Change (eyelash [1]; 0.0015%): 48.1%
Percent of Patients with Eyelash Change: Thickness Change (eyelash [1]; 0.0015%): 33.8%
Percent of Patients with Eyelash Change: Change Reported (eyelash [1]; 0.004%): 61.3%
Percent of Patients with Eyelash Change: Color Change (eyelash [1]; 0.004%): 47.9%
Percent of Patients with Eyelash Change: Density Change (eyelash [1]; 0.004%): 58.2%
Percent of Patients with Eyelash Change: Length Change (eyelash [1]; 0.004%): 61.1%
Percent of Patients with Eyelash Change: Thickness Change (eyelash [1]; 0.004%): 51.1%
change in eyelash color, length, density and/or thickness (in words) (eyelash [1]): concentration-related change
